Measured values from patent US20050043271A1, “Heparin-containing ophthalmic agent” (priority 2001, published 2005).

How the values were obtained:
[1] = system: allergically caused conjunctival inflammation; details: high-dosage, topical application to the eye, animals; cited from earlier work
mast cells = details: without direct antihistamine effect; inhalative and intravenous application; cited from earlier work
[2] = tear film tearing time (fluorescein, slit lamp); format: in vivo; details: concentration of 0.1% by weight to 0.3% by weight
Source text: A further diagnostic parameter in regard to diagnosis of the “dry eye” syndrome is the tear film tearing time which makes it possible to provide information about the quality of the tear fluid. In that case for example the tear film is dyed with fluorescein and the patient is then asked to keep the eyes open as long as possible without a blink reflex. A slit lamp is then used to establish when the tear film tears open for the first time. If the period of time is less than 10 seconds, there is the suspicion of the “dry eye” syndrome.

[3] = system: cornea epithelium cells of rabbits; experiment: epithelium cell migration; format: cell-based; details: 0.1% by weight solution
dry eyes = experiment: subjective feeling of patients in treatment of dry eyes; format: in vivo; details: 0.1% by weight in the composition
Source text: Aqueous sodium hyaluronate solutions are fluids with non-Newtonian flow properties. By virtue of that physical property, aqueous sodium hyaluronate solutions are excellently well suited as slip and lubricating agents with a good cling effect and a prolonged residence time on the conjunctival and corneal epithelia, without adversely affecting visual efficiency.

Substance: heparin
- treatment of allergically caused conjunctival inflammation [1]: effective
- degranulation, caused by antigens, of mast cells (mast cells): inhibits degranulation

Substance: hyaluronic acid
- prolonging the tear film tearing time [2]: highly effective

Substance: sodium hyaluronate
- epithelium cell migration [3]: increased epithelium cell migration
- subjective feeling of the patients (dry eyes): considerably improves
